According to patent publication US10954269B2, “Anti-inflammatory tripeptides” (Dr. August Wolff Gmbh & Co. KG Arzneimittel, priority 2013, dated 2021):
[ ]: non-standard residue; d: D form.

Tested on: human keratinocyte cell line (HaCaT)
Experiment: Cytokine secretion on protein level in activated human keratinocyte cell line HaCaT (13-plex FACS / Luminex, supernatant)
Type: cell-based
How it was run: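 First, T-cells are isolated from healthy donors' blood. Next, they and HaCaT keratinocytes are activated for 48 h with PMA/Ionomycin or IFN-γ in the presence of tripeptides. Finally, secreted cytokines are quantified in supernatants by 13-plex FACS at 48 and 72 h.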

[1] = HaCaT stimulated with IFN-γ, 10^−9M
[2] = HaCaT stimulated with IFN-γ, 10^−9M, excluded from the final assessment
[3] = HaCaT stimulated with IFN-γ, substance 10^−9M
[4] = HaCaT stimulated with PBS, 10^−9M
[5] = HaCaT stimulated with PBS, 10^−9M, excluded from the final assessment
[6] = HaCaT stimulated with PBS, substance 10^−9M
[7] = HaCaT stimulated with PMA/Ionomycin, 10^−9M
[8] = HaCaT stimulated with PMA/Ionomycin, 10^−9M, excluded from the final assessment
[9] = HaCaT stimulated with PMA/Ionomycin, substance 10^−9M

H-Lys-[dP]-Thr-OH [K(D)PT, reference compound]
IL-1 cytokine concentration [1]: 257.77 pg/mL | IL-2 cytokine concentration [1]: 129.65 pg/mL | IL-4 cytokine concentration [1]: 84.61 pg/mL | IL-5 cytokine concentration [1]: 166.92 pg/mL | IL-6 cytokine concentration [1]: 728.31 pg/mL | IL-9 cytokine concentration [1]: 83.09 pg/mL | IL-10 cytokine concentration [1]: 73.19 pg/mL | IL-13 cytokine concentration [1]: 59.62 pg/mL | IL-17 cytokine concentration [1]: 664.43 pg/mL | TNF-α cytokine concentration [1]: 100.07 pg/mL | IL-12p70 cytokine concentration [2]: 0 pg/mL | IL-22 cytokine concentration [2]: 0 pg/mL | IL-1 cytokine concentration [3]: 0 pg/mL | IL-2 cytokine concentration [3]: 131.59 pg/mL | IL-4 cytokine concentration [3]: 52.4 pg/mL | IL-5 cytokine concentration [3]: 0 pg/mL | IL-6 cytokine concentration [3]: 238.12 pg/mL | IL-9 cytokine concentration [3]: 0 pg/mL | IL-10 cytokine concentration [3]: 0 pg/mL | IL-12 cytokine concentration [3]: 0 pg/mL | IL-12p70 cytokine concentration [3]: 0 pg/mL | IL-13 cytokine concentration [3]: 0 pg/mL | IL-17 cytokine concentration [3]: 112.82 pg/mL | IL-22 cytokine concentration [3]: 0 pg/mL | TNF-α cytokine concentration [3]: 50.44 pg/mL | IFN-γ cytokine concentration [4]: 395.55 pg/mL | IL-1 cytokine concentration [4]: 228.99 pg/mL | IL-2 cytokine concentration [4]: 201.9 pg/mL | IL-4 cytokine concentration [4]: 85.48 pg/mL | IL-5 cytokine concentration [4]: 201.01 pg/mL | IL-6 cytokine concentration [4]: 72.95 pg/mL | IL-9 cytokine concentration [4]: 132.74 pg/mL | IL-10 cytokine concentration [4]: 125.52 pg/mL | IL-13 cytokine concentration [4]: 60.72 pg/mL | IL-17 cytokine concentration [4]: 618.22 pg/mL | TNF-α cytokine concentration [4]: 90.41 pg/mL | IL-12p70 cytokine concentration [5]: 0 pg/mL | IL-22 cytokine concentration [5]: 10982.2 pg/mL | IFN-γ cytokine concentration [6]: 99.65 pg/mL | IL-1 cytokine concentration [6]: 65.11 pg/mL | IL-2 cytokine concentration [6]: 0 pg/mL | IL-4 cytokine concentration [6]: 144.86 pg/mL | IL-5 cytokine concentration [6]: 0 pg/mL | IL-6 cytokine concentration [6]: 78.34 pg/mL | IL-9 cytokine concentration [6]: 5.27 pg/mL | IL-10 cytokine concentration [6]: 31.43 pg/mL | IL-12 cytokine concentration [6]: 0 pg/mL | IL-12p70 cytokine concentration [6]: 0 pg/mL | IL-13 cytokine concentration [6]: 0 pg/mL | IL-17 cytokine concentration [6]: 0 pg/mL | IL-22 cytokine concentration [6]: 0 pg/mL | TNF-α cytokine concentration [6]: 9.34 pg/mL | IFN-γ cytokine concentration [7]: 736.13 pg/mL | IL-1 cytokine concentration [7]: 212.49 pg/mL | IL-2 cytokine concentration [7]: 179.25 pg/mL | IL-4 cytokine concentration [7]: 70.92 pg/mL | IL-5 cytokine concentration [7]: 157.36 pg/mL | IL-6 cytokine concentration [7]: 130.87 pg/mL | IL-9 cytokine concentration [7]: 147.79 pg/mL | IL-10 cytokine concentration [7]: 84.32 pg/mL | IL-13 cytokine concentration [7]: 62.95 pg/mL | IL-17 cytokine concentration [7]: 487.56 pg/mL | TNF-α cytokine concentration [7]: 116.88 pg/mL | IL-12p70 cytokine concentration [8]: 0 pg/mL | IL-22 cytokine concentration [8]: 10698.1 pg/mL | IFN-γ cytokine concentration [9]: 0 pg/mL | IL-1 cytokine concentration [9]: 0 pg/mL | IL-2 cytokine concentration [9]: 0 pg/mL | IL-4 cytokine concentration [9]: 129.6 pg/mL | IL-5 cytokine concentration [9]: 0 pg/mL | IL-6 cytokine concentration [9]: 282.85 pg/mL | IL-9 cytokine concentration [9]: 0 pg/mL | IL-10 cytokine concentration [9]: 118.77 pg/mL | IL-12 cytokine concentration [9]: 0 pg/mL | IL-12p70 cytokine concentration [9]: 0 pg/mL | IL-13 cytokine concentration [9]: 0 pg/mL | IL-17 cytokine concentration [9]: 0 pg/mL | IL-22 cytokine concentration [9]: 0 pg/mL | TNF-α cytokine concentration [9]: 0 pg/mL

alpha-melanocyte-stimulating hormone [α-MSH, reference compound]
IL-1 cytokine concentration [1]: 238.96 pg/mL | IL-2 cytokine concentration [1]: 119.87 pg/mL | IL-4 cytokine concentration [1]: 70.08 pg/mL | IL-5 cytokine concentration [1]: 184.1 pg/mL | IL-6 cytokine concentration [1]: 750.84 pg/mL | IL-9 cytokine concentration [1]: 83.5 pg/mL | IL-10 cytokine concentration [1]: 82.71 pg/mL | IL-13 cytokine concentration [1]: 55.34 pg/mL | IL-17 cytokine concentration [1]: 598.13 pg/mL | TNF-α cytokine concentration [1]: 67.75 pg/mL | IL-12p70 cytokine concentration [2]: 0 pg/mL | IL-22 cytokine concentration [2]: 0 pg/mL | IL-1 cytokine concentration [3]: 0 pg/mL | IL-2 cytokine concentration [3]: 0 pg/mL | IL-4 cytokine concentration [3]: 0 pg/mL | IL-5 cytokine concentration [3]: 0 pg/mL | IL-6 cytokine concentration [3]: 202.37 pg/mL | IL-9 cytokine concentration [3]: 0 pg/mL | IL-10 cytokine concentration [3]: 0 pg/mL | IL-12 cytokine concentration [3]: 0 pg/mL | IL-12p70 cytokine concentration [3]: 0 pg/mL | IL-13 cytokine concentration [3]: 0 pg/mL | IL-17 cytokine concentration [3]: 95.44 pg/mL | IL-22 cytokine concentration [3]: 0 pg/mL | TNF-α cytokine concentration [3]: 45.91 pg/mL | IFN-γ cytokine concentration [4]: 365.47 pg/mL | IL-1 cytokine concentration [4]: 271.66 pg/mL | IL-2 cytokine concentration [4]: 251.78 pg/mL | IL-4 cytokine concentration [4]: 56.84 pg/mL | IL-5 cytokine concentration [4]: 150.8 pg/mL | IL-6 cytokine concentration [4]: 76.75 pg/mL | IL-9 cytokine concentration [4]: 124.69 pg/mL | IL-10 cytokine concentration [4]: 107.72 pg/mL | IL-13 cytokine concentration [4]: 65.47 pg/mL | IL-17 cytokine concentration [4]: 544.96 pg/mL | TNF-α cytokine concentration [4]: 97.16 pg/mL | IL-12p70 cytokine concentration [5]: 0 pg/mL | IL-22 cytokine concentration [5]: 9847.56 pg/mL | IFN-γ cytokine concentration [6]: 0 pg/mL | IL-1 cytokine concentration [6]: 0 pg/mL | IL-2 cytokine concentration [6]: 0 pg/mL | IL-4 cytokine concentration [6]: 118.52 pg/mL | IL-5 cytokine concentration [6]: 0 pg/mL | IL-6 cytokine concentration [6]: 15.22 pg/mL | IL-9 cytokine concentration [6]: 9.51 pg/mL | IL-10 cytokine concentration [6]: 39.54 pg/mL | IL-12 cytokine concentration [6]: 0 pg/mL | IL-12p70 cytokine concentration [6]: 0 pg/mL | IL-13 cytokine concentration [6]: 0 pg/mL | IL-17 cytokine concentration [6]: 0 pg/mL | IL-22 cytokine concentration [6]: 0 pg/mL | TNF-α cytokine concentration [6]: 0 pg/mL | IFN-γ cytokine concentration [7]: 617.26 pg/mL | IL-1 cytokine concentration [7]: 143.16 pg/mL | IL-2 cytokine concentration [7]: 98.72 pg/mL | IL-4 cytokine concentration [7]: 72.6 pg/mL | IL-5 cytokine concentration [7]: 131.91 pg/mL | IL-6 cytokine concentration [7]: 113.54 pg/mL | IL-9 cytokine concentration [7]: 105.55 pg/mL | IL-10 cytokine concentration [7]: 111.19 pg/mL | IL-13 cytokine concentration [7]: 55.34 pg/mL | IL-17 cytokine concentration [7]: 338.9 pg/mL | TNF-α cytokine concentration [7]: 103.98 pg/mL | IL-12p70 cytokine concentration [8]: 0 pg/mL | IL-22 cytokine concentration [8]: 9995.76 pg/mL | IFN-γ cytokine concentration [9]: 0 pg/mL | IL-1 cytokine concentration [9]: 0 pg/mL | IL-2 cytokine concentration [9]: 0 pg/mL | IL-4 cytokine concentration [9]: 113.12 pg/mL | IL-5 cytokine concentration [9]: 0 pg/mL | IL-6 cytokine concentration [9]: 179.03 pg/mL | IL-9 cytokine concentration [9]: 0 pg/mL | IL-10 cytokine concentration [9]: 93.2 pg/mL | IL-12 cytokine concentration [9]: 0 pg/mL | IL-12p70 cytokine concentration [9]: 0 pg/mL | IL-13 cytokine concentration [9]: 0 pg/mL | IL-17 cytokine concentration [9]: 0 pg/mL | IL-22 cytokine concentration [9]: 0 pg/mL | TNF-α cytokine concentration [9]: 0 pg/mL
